pIC50: −log10 of the molar value. Read-outs that look alike come from different tables or passages of the source. Each block holds one compound with its values, some of them ahead of it.
Tests used:
hα2B receptor = molecular target: T1, hα2B receptor (Homo sapiens, UniProt P18089); assay: Radioligand binding experiment for hα2B receptor ([3H]-raulwolscine); settings: for IC50: read-out: hα2B pIC50 (converted)
T1 construct: expressed in transfected cells
T1 sequence (P18089 1-450): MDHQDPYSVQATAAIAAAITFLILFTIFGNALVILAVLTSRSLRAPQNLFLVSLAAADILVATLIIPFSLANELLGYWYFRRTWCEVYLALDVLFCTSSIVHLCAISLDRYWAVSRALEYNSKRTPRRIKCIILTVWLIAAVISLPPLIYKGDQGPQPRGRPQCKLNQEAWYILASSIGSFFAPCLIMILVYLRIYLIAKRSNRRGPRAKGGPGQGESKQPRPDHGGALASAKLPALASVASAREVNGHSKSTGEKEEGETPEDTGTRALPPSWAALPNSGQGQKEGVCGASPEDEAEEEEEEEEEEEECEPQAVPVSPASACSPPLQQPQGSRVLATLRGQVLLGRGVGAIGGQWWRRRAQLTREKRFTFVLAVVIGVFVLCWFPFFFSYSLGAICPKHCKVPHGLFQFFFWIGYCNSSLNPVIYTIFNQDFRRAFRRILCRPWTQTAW
Experimental: (§1) The interaction of the compounds of Formula (I) with hα2-receptors and h5-HT-transporters was assessed in in vitro radioligand binding experiments. In general, a low concentration of a radioligand with a high binding affinity for a particular receptor or transporter is incubated with a sample of a tissue preparation enriched in a particular receptor or transporter or with a preparation of cells expressing cloned human receptors in a buffered medium. During the incubation, the radioligand binds to the receptor or transporter. When equilibrium of binding is reached, the receptor bound radioactivity is separated from the non-bound radioactivity, and the receptor- or transporter-bound activity is counted. The interaction of the test compounds with the receptor is assessed in competition binding experiments. Various concentrations of the test compound are added to the incubation mixture containing the receptor- or transporter preparation and the radioligand. The test compound in proportion to its binding affinity and its concentration inhibits binding of the radioligand. The radioligand used for hα2A, hα2B and hα2C receptor binding was [^3H]-raulwolscine and for the h5-HT transporter was [^3H]paroxetine.
(§2) CHO cells, stabile transfected with human adrenergic-α2A-, -α2B or α2C receptor cDNA, were cultured in Dulbecco's Modified Eagle's Medium (DMEM)/Nutrient mixture Ham's F12 (ratio 1:1)(Gibco, Gent-Belgium) supplemented with 10% heat inactivated fetal calf serum (Life Technologies, Merelbeke-Belgium) and antibiotics (100 IU/ml penicillin G, 100 μg/ml streptomycin sulphate, 110 μg/ml pyruvic acid and 100 μg/ml L-glutamine). One day before collection, cells were induced with 5 mM sodiumbutyrate. Upon 80–90% of confluence, cells were scraped in phosphate buffered saline without Ca^2+ and Mg^2+ and collected by centrifugation at 1500×g for 10 min. The cells were homogenised in Tris-HCl 50 mM using an Ultraturrax homogenizer and centrifuged for 10 min at 23,500×g. The pellet was washed once by resuspension and rehomogenization and the final pellet was resuspended in Tris-HCl, divided in 1 ml aliquots and stored at −70° C.
(§3) Membranes were thawed and re-homogenized in incubation buffer (glycylglycine 25 mM, pH 8.0). […] Filters were rinsed extensively with ice-cold rinsing buffer (Tris-HCl 50 mM pH 7.4). Filter-bound radioactivity was determined by scintillation counting in a Topcount (Packard, Meriden, Conn.) and results were expressed as counts per minute (cpm). Non-specific binding was determined in the presence of 1 μM oxymetazoline for hα2A- and hα2B receptors and 1 μM spiroxatrine for hα2C receptors.
(§4) Data from assays in the presence of compound were calculated as a percentage of total binding measured in the absence of test compound. Inhibition curves, plotting percent of total binding versus the log value of the concentration of the test compound, were automatically generated, and sigmoidal inhibition curves were fitted using non-linear regression. The pIC50 values of test compounds were derived from individual curves.

h5-HT transporter = molecular target: T2, h5-HT transporter (Homo sapiens, UniProt P31645); assay: Radioligand binding experiment for 5-HT transporter ([3H]paroxetine, human platelet membranes); settings: for IC50: read-out: 5HTT pIC50 (converted); for pIC50: 5HTT pIC50
T2 construct: Human platelet membranes (Oceanix Biosciences Corporation, Hanover, Md., USA) were thawed; tissue Oceanix Biosciences Corporation, Hanover, Md., USA; host or cells: human platelet membranes
T2 sequence (P31645 whole entry): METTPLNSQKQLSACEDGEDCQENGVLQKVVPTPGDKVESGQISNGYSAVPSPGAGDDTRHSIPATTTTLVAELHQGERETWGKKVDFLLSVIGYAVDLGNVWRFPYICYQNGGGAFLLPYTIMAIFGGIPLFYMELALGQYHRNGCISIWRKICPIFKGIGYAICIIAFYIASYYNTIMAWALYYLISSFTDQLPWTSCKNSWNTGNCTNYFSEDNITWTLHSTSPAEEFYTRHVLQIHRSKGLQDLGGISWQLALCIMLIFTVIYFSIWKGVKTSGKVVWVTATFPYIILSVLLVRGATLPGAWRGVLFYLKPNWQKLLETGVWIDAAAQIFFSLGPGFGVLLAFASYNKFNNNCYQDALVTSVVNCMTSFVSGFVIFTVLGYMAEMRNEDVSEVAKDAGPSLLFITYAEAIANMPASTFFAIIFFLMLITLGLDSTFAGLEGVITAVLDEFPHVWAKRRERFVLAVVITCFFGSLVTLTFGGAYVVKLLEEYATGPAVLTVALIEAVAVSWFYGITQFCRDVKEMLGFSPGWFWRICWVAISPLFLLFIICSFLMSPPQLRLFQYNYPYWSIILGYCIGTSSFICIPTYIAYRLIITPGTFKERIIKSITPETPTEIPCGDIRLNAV
Experimental: as §1
Human platelet membranes (Oceanix Biosciences Corporation, Hanover, Md., USA) were thawed, diluted in buffer (Tris-HCl 50 mM, 120 mM NaCl and 5 mM KCl) and quickly (max 3 s) homogenised with an Ultraturrax homogenizer. […] Filters were rinsed extensively with ice-cold buffer and radioactivity on the filters was counted in a Topcount liquid scintillation counter (Packard, Meriden, Conn.). Data were expressed as cpm. Imipramine (at 1 μM final concentration) was used to determine the non-specific binding.
as §4

hα2C receptor = molecular target: T3, hα2C receptor (Homo sapiens, UniProt P18825); assay: Radioligand binding experiment for hα2C receptor ([3H]-raulwolscine); settings: for IC50: read-out: hα2C pIC50 (converted); for pIC50: hα2C pIC50, membranes of CHO cells expressing human α2C receptor
T3 construct: expressed in transfected cells
T3 sequence (P18825 1-462): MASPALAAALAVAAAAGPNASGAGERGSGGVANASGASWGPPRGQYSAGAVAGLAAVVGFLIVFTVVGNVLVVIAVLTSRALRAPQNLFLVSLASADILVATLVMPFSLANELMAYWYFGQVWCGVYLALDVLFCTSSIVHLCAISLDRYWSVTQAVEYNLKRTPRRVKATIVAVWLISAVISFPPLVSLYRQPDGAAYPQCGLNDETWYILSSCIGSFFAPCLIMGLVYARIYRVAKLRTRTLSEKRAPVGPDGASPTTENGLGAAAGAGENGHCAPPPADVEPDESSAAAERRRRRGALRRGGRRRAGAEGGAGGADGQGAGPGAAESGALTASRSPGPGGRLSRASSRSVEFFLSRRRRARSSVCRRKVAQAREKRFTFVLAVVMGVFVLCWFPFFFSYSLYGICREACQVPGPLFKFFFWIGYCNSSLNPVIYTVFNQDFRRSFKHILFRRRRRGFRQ
Experimental: as §1, §2, §3, §4

[1] = membranes of CHO cells expressing human α2B receptor, [3H]raulwolscine 1 nM
[2] = human platelet membranes, [3H]paroxetine 0.5 nM
[3] = membranes of CHO cells expressing human α2C receptor, [3H]raulwolscine 1 nM

SMILES: COc1cc2c(cc1OC)C1=NOC(CN3CCN(CC=C(C)c4ccccc4)CC3)C1CN2 (stereo not shown) [Compound 379]
IC50 (hα2B receptor; [1]): 19.5 nM | IC50 (h5-HT transporter; [2]): 34.7 nM | IC50 (hα2C receptor; [3]): 40.7 nM

SMILES: COc1ccc2c(c1)OCC1C2=NOC1CN1CCN(CC=Cc2ccccc2)CC1 (stereo not shown) [Compound 217]
IC50 (hα2B receptor; [1]): 6.17 nM | IC50 (h5-HT transporter; [2]): 53.7 nM | IC50 (hα2C receptor): 14.1 nM

SMILES: c1ccc2c(c1)NCC1C2=NOC1CN1CCN(Cc2ccc3ccccc3c2)CC1 (stereo not shown) [Compound 9]
IC50 (hα2B receptor; [1]): 4.68 nM | IC50 (h5-HT transporter; [2]): 1.58 nM | IC50 (hα2C receptor; [3]): 107 nM

SMILES: COc1cc2c(cc1OC)C1=NOC(CN3CCN(C/C=C(\C)c4ccccc4)CC3)C1CO2 (single isomer, unassigned) [Compound 320]
IC50 (hα2B receptor): 20 nM | IC50 (h5-HT transporter): 32.4 nM | IC50 (hα2C receptor): 6.76 nM

SMILES: CCNC(=O)Oc1ccc2c(c1)OCC1C2=NOC1CN1CCN(CC(C)=Cc2ccccc2)CC1 (stereo not shown) [Compound 238]
pIC50 (hα2B receptor; hα2B pIC50, membranes of CHO cells expressing human α2B receptor, [3H]raulwolscine 1 nM): 8.62 | pIC50 (h5-HT transporter): 8.07 | pIC50 (hα2C receptor; [3H]raulwolscine 1 nM): 8.59

SMILES: COc1cc2c(cc1OC)C1=NOC(CN3CCN(CC(C)=Cc4ccccc4)CC3)C1CN2 (single isomer, unassigned) [Compound 253]
hα2B pIC50 (hα2B receptor; [1]): 7.94 | 5HTT pIC50 (h5-HT transporter; [2]): 6.60 | hα2C pIC50 (hα2C receptor; [3]): 7.98

SMILES: COc1cc2c(cc1OC)C1=NOC(CN3CCN(Cc4ccc5ccccc5c4)CC3)C1CN2 (stereo not shown) [Compound 15]
IC50 (hα2B receptor; [1]): 14.5 nM | IC50 (h5-HT transporter): 17 nM | IC50 (hα2C receptor; [3]): 11.5 nM

SMILES: COc1cc2c(cc1OC)C1=NOC(CN3CCN(C/C=C/c4ccccc4)CC3)C1CO2 (single isomer, unassigned) [Compound 1]
IC50 (hα2B receptor): 3.24 nM | IC50 (h5-HT transporter): 5.13 nM

SMILES: CCOC(=O)N1CC2C(=NOC2CN2CCN(CC=Cc3ccccc3)CC2)c2ccccc21 (stereo not shown) [Compound 226]
hα2B pIC50 (hα2B receptor; [1]): 7.09 | 5HTT pIC50 (h5-HT transporter; [2]): 8.08 | hα2C pIC50 (hα2C receptor; [3]): 6.96

SMILES: O=C(N1CC2C(=NOC2CN2CCN(CC=Cc3ccccc3)CC2)c2ccccc21)C(F)(F)F (stereo not shown) [Compound 224]
hα2B pIC50 (hα2B receptor; [1]): 7.66 | 5HTT pIC50 (h5-HT transporter; [2]): 7.31 | hα2C pIC50 (hα2C receptor; [3]): 7.13

SMILES: CCNC(=O)Oc1cc2c(cc1OC)C1=NOC(CN3CCN(C/C(C)=C/c4ccccc4)CC3)C1CO2 (single isomer, unassigned) [Compound 340]
pIC50 (h5-HT transporter): 7.64 | pIC50 (hα2C receptor; [3H]raulwolscine 1 nM): 8.42

IC50 (hα2B receptor; [1]): 0.363 nM | IC50 (h5-HT transporter; [2]): 11.2 nM
SMILES: CC(=Cc1ccccc1)CN1CCN(CC2ON=C3c4ccc(OCCN(C)C)cc4OCC32)CC1 (stereo not shown) [Compound 242]

SMILES: C=CC(=O)Oc1ccc2c(c1)OCC1C2=NOC1CN1CCN(CC(C)=Cc2ccccc2)CC1 (stereo not shown) [Compound 251]
hα2B pIC50 (hα2B receptor; [1]): 8.31 | 5HTT pIC50 (h5-HT transporter; [2]): 6.89 | hα2C pIC50 (hα2C receptor; [3]): 8.26

SMILES: COc1cc2c(cc1OC)C1=NOC(CN3CCN(Cc4ccc5ccccc5c4)CC3)C1CN2 (stereo not shown) [Compound 272]
IC50 (hα2B receptor; [1]): 26.9 nM | IC50 (h5-HT transporter): 4.79 nM | IC50 (hα2C receptor; [3]): 135 nM

IC50 (hα2B receptor; [1]): 9.77 nM | IC50 (hα2C receptor; [3]): 6.76 nM
SMILES: COc1cc2c(cc1OC)C1=NOC(CN3CCN(C/C(C)=C/c4ccccc4)CC3)C1CO2 (single isomer, unassigned) [Compound 129]

IC50 (hα2B receptor; [1]): 2.4 nM | IC50 (h5-HT transporter; [2]): 14.1 nM | IC50 (hα2C receptor; [3]): 0.288 nM
SMILES: COCCOc1ccc2c(c1)OCC1C2=NOC1CN1CCN(CC(C)=Cc2ccccc2)CC1 (stereo not shown) [Compound 239]

SMILES: COc1cc2c(cc1OC)C1=NOC(CN3CCN(C/C=C/c4ccccc4)CC3)C1CO2 (single isomer, unassigned) [Compound 8]
IC50 (hα2B receptor): 7.24 nM | IC50 (h5-HT transporter): 17.8 nM

SMILES: COc1cc2c(cc1OC)C1=NOC(CN3CCN(CC=Cc4cccc(F)c4)CC3)C1CN2 (stereo not shown) [Compound 351]
hα2B pIC50 (hα2B receptor; [1]): 8.16 | 5HTT pIC50 (h5-HT transporter; [2]): 8.06 | hα2C pIC50 (hα2C receptor; [3]): 8.19

SMILES: CC(=Cc1ccccc1)CN1CCN(CC2ON=C3c4ccccc4NCC32)CC1 (stereo not shown) [Compound 234]
hα2B pIC50 (hα2B receptor; [1]): 8.88 | 5HTT pIC50 (h5-HT transporter; [2]): 7.71 | hα2C pIC50 (hα2C receptor; [3]): 8.41

SMILES: CC(=Cc1ccccc1)CN1CCN(CC2ON=C3c4ccc(OC(=O)C(C)(C)C)cc4OCC32)CC1 (stereo not shown) [Compound 329]
IC50 (hα2B receptor; [1]): 27.5 nM | IC50 (h5-HT transporter): 33.1 nM | IC50 (hα2C receptor): 18.2 nM

SMILES: CC(=Cc1ccccc1)CN1CCN(CC2ON=C3c4ccc(OC5CCCC5)cc4OCC32)CC1 (stereo not shown) [Compound 243]
hα2B pIC50 (hα2B receptor; [1]): 7.77 | 5HTT pIC50 (h5-HT transporter; [2]): 6.75 | hα2C pIC50 (hα2C receptor; [3]): 8.29

IC50 (h5-HT transporter; [2]): 1000 nM | IC50 (hα2C receptor; [3]): 1000 nM
SMILES: COc1cc2c(cc1OC)C1=NOC(CN3CCN(Cc4ccccc4C(F)(F)F)CC3)C1CO2 (stereo not shown) [Compound 79]

IC50 (h5-HT transporter; [2]): 145 nM | IC50 (hα2C receptor; [3]): 1000 nM
SMILES: COc1cc2c(cc1OC)C1=NOC(CN3CCN(Cc4ccc([N+](=O)[O-])cc4)CC3)C1CO2 (stereo not shown) [Compound 81]

SMILES: CC(=Cc1ccccc1)CN1CCN(CC2ON=C3c4ccc(OC(=O)C5CC5)cc4OCC32)CC1 (stereo not shown) [Compound 250]
IC50 (hα2B receptor; [1]): 6.76 nM | IC50 (h5-HT transporter; [2]): 81.3 nM | IC50 (hα2C receptor): 3.31 nM

IC50 (h5-HT transporter; [2]): 355 nM | IC50 (hα2C receptor; [3]): 1000 nM
SMILES: COc1cc2c(cc1OC)C1=NOC(CN3CCN(Cc4cccc(C#N)c4)CC3)C1CO2 (stereo not shown) [Compound 97]

IC50 (hα2B receptor; [1]): 1.26 nM | IC50 (h5-HT transporter; [2]): 11.5 nM | IC50 (hα2C receptor; [3]): 1.17 nM
SMILES: CC(=Cc1ccccc1)CN1CCN(CC2ON=C3c4ccc(O)cc4OCC32)CC1 (stereo not shown) [Compound 237]

SMILES: COc1cc2c(cc1OC)C1=NOC(CN3CCN(Cc4ccc5ccccc5c4)CC3)C1CO2 (single isomer, unassigned) [Compound 16]
IC50 (hα2B receptor): 6.17 nM | IC50 (h5-HT transporter): 3.72 nM | IC50 (hα2C receptor): 6.76 nM
